Results published in ChEMBL document CHEMBL1201862, “PubChem BioAssay data set” (2004).
Calls of active or inactive are those of the source.

Legend:
[1] = A Cell Based Secondary Assay To Explore Cytotoxicity of Compounds that Sensitize Mycobacterium Tuberculosis to Beta-Lactam Antibiotics.; assay type: functional
[2] = molecular target: T1, Acyl-homoserine lactone acylase PvdQ (Pseudomonas aeruginosa (strain LESB58), UniProt Q9I194); assay: P. aeruginosa PvdQ acylase inhibitors, dose response, biochemical, fluorescence, plate reader and imaging, cherry-picks (AID 493231)
T1 sequence (Q9I194 whole entry): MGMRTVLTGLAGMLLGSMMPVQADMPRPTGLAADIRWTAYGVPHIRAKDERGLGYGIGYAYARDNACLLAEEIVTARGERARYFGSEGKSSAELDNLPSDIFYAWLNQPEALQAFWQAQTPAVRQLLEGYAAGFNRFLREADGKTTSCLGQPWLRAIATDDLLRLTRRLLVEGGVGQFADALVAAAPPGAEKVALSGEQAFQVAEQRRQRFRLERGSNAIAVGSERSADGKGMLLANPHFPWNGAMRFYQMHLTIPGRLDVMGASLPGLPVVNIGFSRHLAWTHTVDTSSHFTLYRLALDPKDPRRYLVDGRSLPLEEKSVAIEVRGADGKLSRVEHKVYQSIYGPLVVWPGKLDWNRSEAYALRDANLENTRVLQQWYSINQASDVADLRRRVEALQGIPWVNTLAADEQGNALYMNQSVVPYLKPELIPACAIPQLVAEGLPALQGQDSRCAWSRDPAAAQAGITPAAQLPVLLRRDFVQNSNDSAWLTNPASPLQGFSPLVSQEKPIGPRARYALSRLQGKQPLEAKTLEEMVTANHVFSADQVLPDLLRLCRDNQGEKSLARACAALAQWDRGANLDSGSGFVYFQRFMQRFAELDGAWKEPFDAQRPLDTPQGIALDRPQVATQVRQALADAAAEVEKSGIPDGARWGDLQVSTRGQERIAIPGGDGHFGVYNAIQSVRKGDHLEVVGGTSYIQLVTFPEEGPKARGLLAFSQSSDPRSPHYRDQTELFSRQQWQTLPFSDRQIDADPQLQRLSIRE

Aminopeptidase N = molecular target: T2, Aminopeptidase N (Plasmodium falciparum FcB1/Columbia, UniProt O96935); assay: P. falciparum M1AAP inhibitors, biochemical, fluorogenic H-Leu-NHMec substrate, 1536-well (AID 1445); parameters: species or system Plasmodium falciparum 3D7, 3D7
T2 sequence (O96935 whole entry): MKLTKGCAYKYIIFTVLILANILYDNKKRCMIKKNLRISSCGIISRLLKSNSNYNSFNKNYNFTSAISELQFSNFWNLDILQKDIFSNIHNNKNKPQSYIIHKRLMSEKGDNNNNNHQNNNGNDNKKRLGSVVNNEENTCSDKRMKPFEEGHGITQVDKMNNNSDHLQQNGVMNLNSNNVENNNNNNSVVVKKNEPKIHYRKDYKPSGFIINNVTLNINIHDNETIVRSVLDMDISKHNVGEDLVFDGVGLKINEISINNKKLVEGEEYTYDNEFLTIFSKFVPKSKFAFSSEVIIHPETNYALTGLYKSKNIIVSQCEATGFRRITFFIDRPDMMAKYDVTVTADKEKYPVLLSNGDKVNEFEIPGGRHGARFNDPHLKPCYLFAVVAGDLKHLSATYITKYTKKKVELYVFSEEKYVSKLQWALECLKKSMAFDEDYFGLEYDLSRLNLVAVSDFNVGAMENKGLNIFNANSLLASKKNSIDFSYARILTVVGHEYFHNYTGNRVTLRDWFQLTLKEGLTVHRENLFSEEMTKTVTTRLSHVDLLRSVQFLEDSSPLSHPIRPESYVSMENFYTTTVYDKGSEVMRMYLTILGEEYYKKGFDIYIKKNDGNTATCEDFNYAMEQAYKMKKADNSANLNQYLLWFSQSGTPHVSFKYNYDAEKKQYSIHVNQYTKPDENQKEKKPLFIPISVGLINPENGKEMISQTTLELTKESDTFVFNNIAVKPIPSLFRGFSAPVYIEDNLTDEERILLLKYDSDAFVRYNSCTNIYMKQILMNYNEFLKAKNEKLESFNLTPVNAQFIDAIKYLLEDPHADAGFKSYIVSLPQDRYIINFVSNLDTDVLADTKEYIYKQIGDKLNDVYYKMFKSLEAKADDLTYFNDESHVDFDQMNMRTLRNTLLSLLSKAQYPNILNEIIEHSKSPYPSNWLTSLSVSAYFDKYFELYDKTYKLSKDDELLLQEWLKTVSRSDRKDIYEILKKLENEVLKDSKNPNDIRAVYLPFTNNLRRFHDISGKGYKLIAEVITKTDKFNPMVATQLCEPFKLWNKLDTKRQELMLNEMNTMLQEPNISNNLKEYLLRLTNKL

[3] = insulin promoter down-regulators in MIN6 cells, imaging, high-content screening, mouse beta cells (AID 1628); assay type: functional
[4] = cytotoxicity in MIN6 insulinoma cells, dose response, cytotoxicity control, cell-based, mouse insulinoma (AID 2122); assay type: functional;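 note: confirmatory high-throughput counterscreen run to flag cytotoxic compounds; mouse MIN-6 beta cells carrying an insulin promoter eGFP reporter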
ORF 73 = molecular target: T3, ORF 73 (Human herpesvirus 8, UniProt O40947); assay: inhibitors of C-LANA binding to LBS DNA, dose response, biochemical, fluorescence polarization, cherry-picked samples (AID 504725); parameters: species or system Human gammaherpesvirus 8;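 note: fluorescence polarization of a labeled DNA duplex reporting LANA DNA binding; potency is for inhibitors that block LANA binding to the DNA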
T3 sequence (O40947 whole entry): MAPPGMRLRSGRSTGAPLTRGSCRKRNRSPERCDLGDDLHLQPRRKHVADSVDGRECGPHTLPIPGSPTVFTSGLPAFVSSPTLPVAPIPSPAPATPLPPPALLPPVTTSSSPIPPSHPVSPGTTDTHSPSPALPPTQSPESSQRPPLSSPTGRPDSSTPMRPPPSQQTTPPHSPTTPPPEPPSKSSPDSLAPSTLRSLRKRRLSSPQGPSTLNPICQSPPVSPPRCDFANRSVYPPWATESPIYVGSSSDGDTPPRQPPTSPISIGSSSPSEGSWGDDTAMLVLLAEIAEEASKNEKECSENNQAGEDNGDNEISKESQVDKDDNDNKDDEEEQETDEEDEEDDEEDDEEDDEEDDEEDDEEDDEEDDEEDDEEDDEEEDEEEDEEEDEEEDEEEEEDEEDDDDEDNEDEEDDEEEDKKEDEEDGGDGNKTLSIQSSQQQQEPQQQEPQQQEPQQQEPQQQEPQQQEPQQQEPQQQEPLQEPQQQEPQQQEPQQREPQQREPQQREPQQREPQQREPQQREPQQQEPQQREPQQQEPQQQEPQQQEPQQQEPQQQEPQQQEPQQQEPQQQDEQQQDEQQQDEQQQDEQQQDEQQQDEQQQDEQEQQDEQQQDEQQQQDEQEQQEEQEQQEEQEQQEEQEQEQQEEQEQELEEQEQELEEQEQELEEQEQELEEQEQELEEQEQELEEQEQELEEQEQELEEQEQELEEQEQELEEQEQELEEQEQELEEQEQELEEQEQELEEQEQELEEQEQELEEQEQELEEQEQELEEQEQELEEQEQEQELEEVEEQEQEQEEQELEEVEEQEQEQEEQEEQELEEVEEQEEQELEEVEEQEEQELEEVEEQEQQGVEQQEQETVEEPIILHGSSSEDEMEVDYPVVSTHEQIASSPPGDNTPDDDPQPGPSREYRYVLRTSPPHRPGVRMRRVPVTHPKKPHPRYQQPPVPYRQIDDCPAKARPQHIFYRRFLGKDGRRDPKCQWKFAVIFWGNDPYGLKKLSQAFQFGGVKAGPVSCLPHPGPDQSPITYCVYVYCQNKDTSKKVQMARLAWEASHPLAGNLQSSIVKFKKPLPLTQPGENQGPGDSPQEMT

HEK293 = assay: inhibitors of LMP1-driven NF-kB reporter, dose response, cell-based, HEK293, luciferase, cherry-pick (AID 588343); assay type: functional; conditions: Homo sapiens
[5] = cytotoxicity toward NIH3T3 fibroblasts, dose response, counter-screen, cell-based, ATP luminescence, mouse fibroblasts (AID 2010); assay type: functional;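 note: cells exposed to compound for about 90 hours before reading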
[6] = inhibitors of intracellular T. cruzi replication, confirmation, NIH3T3 host cells, beta-gal luminescence (AID 2044); assay type: functional, cell-based;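 note: intracellular parasites grown in NIH/3T3 mouse fibroblasts as host cells; luminescent beta-galactosidase reporter signal from transgenic T. cruzi replicating inside host cells; inhibitors lower the luminescence signal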
Leucine aminopeptidase = molecular target: T4, Leucine aminopeptidase (Plasmodium falciparum 3D7, UniProt Q8IL11); assay: P. falciparum M17LAP inhibitors, primary screen, biochemical, fluorogenic H-Leu-NHMec substrate, 1536-well (AID 1619); assay type: functional
T4 sequence (Q8IL11 whole entry): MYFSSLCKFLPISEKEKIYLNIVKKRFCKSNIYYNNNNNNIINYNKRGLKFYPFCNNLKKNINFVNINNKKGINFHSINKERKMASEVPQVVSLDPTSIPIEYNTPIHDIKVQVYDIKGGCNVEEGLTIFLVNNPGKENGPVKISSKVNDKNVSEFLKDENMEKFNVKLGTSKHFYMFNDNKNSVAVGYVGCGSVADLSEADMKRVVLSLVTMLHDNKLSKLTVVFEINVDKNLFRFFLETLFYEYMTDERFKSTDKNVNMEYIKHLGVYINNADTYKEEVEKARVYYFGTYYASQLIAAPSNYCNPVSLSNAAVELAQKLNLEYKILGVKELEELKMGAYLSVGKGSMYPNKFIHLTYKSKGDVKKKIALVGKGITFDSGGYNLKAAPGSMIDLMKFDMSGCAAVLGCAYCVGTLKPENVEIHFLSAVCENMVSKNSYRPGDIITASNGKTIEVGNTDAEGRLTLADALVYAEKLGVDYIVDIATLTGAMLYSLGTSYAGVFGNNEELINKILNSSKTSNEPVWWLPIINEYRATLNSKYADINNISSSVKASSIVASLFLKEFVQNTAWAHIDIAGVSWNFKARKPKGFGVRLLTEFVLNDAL

[7] = molecular target: T5, Rac GTPase-activating protein 1 (Homo sapiens, UniProt Q9H0H5); assay: MgcRacGAP GTPase-activating activity inhibitors, confirmation, biochemical, ADP Hunter fluorescence, primary and confirmatory (AID 624330); assay type: functional
T5 sequence (Q9H0H5 whole entry): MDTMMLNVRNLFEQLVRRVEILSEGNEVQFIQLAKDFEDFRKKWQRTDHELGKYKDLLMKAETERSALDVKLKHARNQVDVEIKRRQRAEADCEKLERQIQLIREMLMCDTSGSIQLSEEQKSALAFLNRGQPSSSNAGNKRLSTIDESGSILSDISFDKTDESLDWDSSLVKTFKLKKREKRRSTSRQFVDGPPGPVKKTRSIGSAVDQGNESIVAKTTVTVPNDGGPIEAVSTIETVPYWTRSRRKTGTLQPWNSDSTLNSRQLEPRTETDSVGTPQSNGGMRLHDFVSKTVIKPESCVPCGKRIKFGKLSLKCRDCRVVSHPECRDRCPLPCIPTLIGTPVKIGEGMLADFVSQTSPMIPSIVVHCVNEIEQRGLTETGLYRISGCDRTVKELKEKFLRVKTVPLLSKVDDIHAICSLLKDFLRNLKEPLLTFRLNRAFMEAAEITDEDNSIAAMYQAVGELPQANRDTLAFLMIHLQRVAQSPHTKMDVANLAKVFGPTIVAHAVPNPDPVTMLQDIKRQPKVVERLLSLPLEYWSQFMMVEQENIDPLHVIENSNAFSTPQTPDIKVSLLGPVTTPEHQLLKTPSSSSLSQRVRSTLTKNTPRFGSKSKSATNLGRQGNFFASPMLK

Large T antigen = Large T antigen (Simian virus 40, UniProt P03070); assay type: functional, Betapolyomavirus macacae;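 note: Confirmatory-stage PubChem screen for compounds that inhibit SV40 T antigen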
Sequence of Large T antigen (P03070 whole entry): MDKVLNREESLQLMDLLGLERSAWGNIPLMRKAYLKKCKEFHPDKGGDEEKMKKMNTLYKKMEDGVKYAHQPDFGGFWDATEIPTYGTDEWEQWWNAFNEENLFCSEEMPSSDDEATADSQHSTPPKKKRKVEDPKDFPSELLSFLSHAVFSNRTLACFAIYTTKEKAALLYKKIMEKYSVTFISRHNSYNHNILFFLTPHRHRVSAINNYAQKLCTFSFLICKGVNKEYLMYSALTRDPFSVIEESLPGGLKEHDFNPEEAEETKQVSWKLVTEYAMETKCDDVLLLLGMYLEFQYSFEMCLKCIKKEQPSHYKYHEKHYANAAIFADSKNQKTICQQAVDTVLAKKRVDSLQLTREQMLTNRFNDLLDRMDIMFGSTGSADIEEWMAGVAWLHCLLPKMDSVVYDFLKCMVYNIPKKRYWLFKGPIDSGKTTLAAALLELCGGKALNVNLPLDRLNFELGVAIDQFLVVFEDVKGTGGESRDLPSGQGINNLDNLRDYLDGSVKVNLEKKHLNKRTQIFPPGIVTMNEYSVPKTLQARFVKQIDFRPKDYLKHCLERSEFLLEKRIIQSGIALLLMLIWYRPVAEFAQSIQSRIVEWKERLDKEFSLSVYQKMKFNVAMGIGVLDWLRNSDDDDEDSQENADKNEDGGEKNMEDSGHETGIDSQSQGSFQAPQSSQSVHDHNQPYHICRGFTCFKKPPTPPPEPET

COCc1cc(O)n2ncc(-c3ccccc3)c2n1
CC50 [1]: > 40 µM (active)

O=C(/C=C/c1ccc2c(c1)OCCO2)c1ccccc1
AC50 [2]: 29.3 µM (active)

CCOC(=O)N1CCN(C(=O)c2ccc3c(c2)sc2nc(-c4ccccc4)cn23)CC1
IC50 (Aminopeptidase N): 73.4 µM (active)

Cn1nc(-c2ccc(OCC(=O)NCC3CCCO3)cc2)c2ccccc2c1=O (stereo not drawn)
CC50 [1]: > 40 µM (active)

Cc1cccc(NC(S)=NC(C)(C)CC(C)(C)C)c1
IC50 [3]: 1.92 µM (active)
IC50 [4]: 1.87 µM (active)

O=C(/C=C/c1cccc([N+](=O)[O-])c1)N1CCN(Cc2ccc3c(c2)OCO3)CC1
IC50 (Aminopeptidase N): 108 µM (active)

COc1ccc(Cn2c(C)nc3c(c(=O)c4ccccc4n3C)c2=O)cc1
CC50 [1]: > 40 µM (active)

COCCN(CCOC)Cc1c(O)ccc2c1O/C(=C\c1ccco1)C2=O
AC50 (ORF 73): 11.9 µM (active)

Cc1ccc(NC(=O)Nc2cccs2)nc1
IC50 (Aminopeptidase N): 26.4 µM (active)

COc1ccc(NC(=S)N(CCCN2CCCC2)Cc2cccn2Cc2ccc(Cl)cc2)cc1Cl
IC50 [3]: 2.89 µM (active)
IC50 [4]: 3.27 µM (active)

C=CCOC(=O)c1ccc(-n2cnc(C)n2)nc1
AC50 [2]: 4.58 µM (active)

CCOc1ccc(Nc2ncnc3ccc([N+](=O)[O-])cc23)cc1
AC50 (HEK293): 8.95 µM (active)
EC50 [5]: > 60 µM (not active)
EC50 [6]: 2.22 µM (active)
AC50 [2]: 30.8 µM (active)

O=[N+]([O-])c1ccc(-c2cccnc2)cc1
AC50 [2]: 13.1 µM (active)

COc1ccc2c(c1)c(C(=O)N/N=C/c1ccc(O)c(O)c1)c(C)n2C
IC50 (Leucine aminopeptidase): 29.7 µM (active)
IC50 [7]: 23.5 µM (active)
IC50 (Large T antigen): 16.7 µM (active)

C/C(=N\Nc1cc(N2CCOCC2)nc(C)n1)c1cccc([N+](=O)[O-])c1
IC50 [3]: 1.98 µM (active)
IC50 [4]: 3.14 µM (active)
